Results as given in publication PMC9719519, “Non-classical ferroptosis inhibition by a small molecule targeting PHB2” (Nature Communications, 2022).

Biological target: prohibitin 2 (PHB2) (Homo sapiens, UniProt Q99623)
Assay: diazirine photoaffinity labelling (UV […] nm) with pull-down/western blot; DARTS
Format: cell-based
Parameters: endogenous PHB2 in ES-2 cells

prohibitin 2 (PHB2), sequence (Q99623 2-299): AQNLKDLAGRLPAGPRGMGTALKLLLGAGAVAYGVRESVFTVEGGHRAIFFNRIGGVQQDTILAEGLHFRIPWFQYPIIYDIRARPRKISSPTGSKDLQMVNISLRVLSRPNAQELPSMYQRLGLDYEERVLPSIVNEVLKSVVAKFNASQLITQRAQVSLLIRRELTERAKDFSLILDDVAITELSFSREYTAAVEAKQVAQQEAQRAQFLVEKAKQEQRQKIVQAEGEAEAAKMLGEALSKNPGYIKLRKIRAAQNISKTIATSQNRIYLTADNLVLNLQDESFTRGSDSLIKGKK

## C#CCCC1(CC(=O)N2CCC(n3cc(-c4cn5cc(-c6ccccc6)nc5c(C5=CCOCC5)n4)cn3)CC2)N=N1 [YL-939-1]
  diazirine photoaffinity labelling (UV 365 nm) with pull-down/western blot; DARTS: revealed that only PHB2 protein could be pulled down by the probe (Fig. 4D)
